Assay [1] addresses T1, hS1PR5 (hEdg8) membrane protein (Homo sapiens, UniProt Q9H228).
T1 construct: expressed in transfected cells; host or cells: CHO
In words: hS1P5R GTPγS binding assay (Assay 4). Format: biochemical. As to the method: The hS1PR5 GTPγS binding assay was carried out at room temperature in 96-well non-binding surface assay plates. The reaction in each well contained 5 μg hS1PR5 (hEdg8) membrane protein from CHO cells expressing hS1PR5, 30 μM GDP, 0.1 nM [^35S]GTPγS, 0.25% fatty acid free BSA, and serially-diluted Compound of the Invention in 200 μL assay buffer (25 mM Tris-HCl PH 7.9, 100 mM NaCl, 3 mM MgCl2, and 0.2 mM EGTA). After one hour of incubation, 0.9 mg of WGA (Wheat Germ Agglutinin) SPA beads in 50 μL of assay buffer was added to each well. The SPA beads were spun down after an additional one hour incubation. The radioactivity of the bound GTPγS was counted by reading the assay plate using a MicroBeta.

Assay [2] deals with T2, hS1P1R (hEdg1) membrane protein (Homo sapiens, UniProt P21453).
T2 construct: purchased Lonza
T2 sequence (P21453 whole entry): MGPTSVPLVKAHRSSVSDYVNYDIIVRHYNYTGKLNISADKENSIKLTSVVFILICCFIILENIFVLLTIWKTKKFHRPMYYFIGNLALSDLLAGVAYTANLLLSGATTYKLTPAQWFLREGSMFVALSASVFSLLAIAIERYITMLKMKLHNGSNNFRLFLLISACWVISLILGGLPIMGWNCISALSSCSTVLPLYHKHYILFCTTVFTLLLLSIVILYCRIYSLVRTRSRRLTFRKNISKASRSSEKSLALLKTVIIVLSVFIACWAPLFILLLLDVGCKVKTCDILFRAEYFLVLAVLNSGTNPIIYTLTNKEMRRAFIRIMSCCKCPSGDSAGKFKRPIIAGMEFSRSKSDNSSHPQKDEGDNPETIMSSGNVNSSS
In words: hS1P1R GTPγS binding assay (Assay 3a). It is filed as biochemical. As to the method:
Assay 3a: The hS1P1R GTPγS binding assay was carried out at room temperature in 96 well non-binding surface assay plates. The reaction in each well contained 4 μg hS1P1R (hEdg1) membrane protein (Lonza), 30 μM GDP, 0.1 nM [^35S]GTPγS, 0.25% fatty acid free BSA, and serially diluted hS1P1R agonist compound in 200 μL assay buffer (25 mM Tris-HCl PH 7.9, 100 mM NaCl, 3 mM MgCl2, and 0.2 mM EGTA). After one hour of incubation, 0.9 mg of WGA (Wheat Germ Agglutinin) SPA beads in 50 μL of assay buffer was added to each well. The SPA beads were spun down after an additional one hour incubation. The radioactivity of the bound GTPγS was counted by reading the assay plate using a MicroBeta.

For another assay, the target named is T3, S1P3 (Homo sapiens, UniProt Q99500).
T3 construct: host or cells: HEK293 (transient transfection)
T3 sequence (P32121 whole entry): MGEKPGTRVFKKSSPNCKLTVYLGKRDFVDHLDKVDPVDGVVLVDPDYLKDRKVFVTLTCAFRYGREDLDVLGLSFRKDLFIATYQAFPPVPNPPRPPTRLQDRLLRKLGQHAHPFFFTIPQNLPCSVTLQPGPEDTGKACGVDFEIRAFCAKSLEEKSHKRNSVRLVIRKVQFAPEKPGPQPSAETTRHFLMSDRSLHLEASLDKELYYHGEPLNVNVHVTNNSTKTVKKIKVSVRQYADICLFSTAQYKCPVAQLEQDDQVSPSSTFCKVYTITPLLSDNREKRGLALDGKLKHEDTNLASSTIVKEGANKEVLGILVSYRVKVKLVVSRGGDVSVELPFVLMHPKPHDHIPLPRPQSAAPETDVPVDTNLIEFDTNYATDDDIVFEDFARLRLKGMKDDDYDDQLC
T3 sequence (Q99500 whole entry): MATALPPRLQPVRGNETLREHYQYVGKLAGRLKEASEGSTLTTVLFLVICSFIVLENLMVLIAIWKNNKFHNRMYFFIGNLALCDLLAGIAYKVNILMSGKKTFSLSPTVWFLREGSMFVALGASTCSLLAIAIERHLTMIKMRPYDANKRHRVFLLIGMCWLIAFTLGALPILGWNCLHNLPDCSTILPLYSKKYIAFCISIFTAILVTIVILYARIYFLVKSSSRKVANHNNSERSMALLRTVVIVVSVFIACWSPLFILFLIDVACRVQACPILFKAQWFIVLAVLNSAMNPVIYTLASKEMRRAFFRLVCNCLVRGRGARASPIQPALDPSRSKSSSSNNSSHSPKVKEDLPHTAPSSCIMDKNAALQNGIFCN
Nature of the assay: S1P3 Tango β-arrestin recruitment assay in HEK293 cells (Assay 5). It is filed as cell-based. As to conditions: read-out: Assay 5 EC50. From the text: (§1) For the Tango™ β-arrestin recruitment assay, the cytoplasmic C-terminus of S1P1 was tethered to the tTA transcriptional activator with a linker that contains a cleavage site for the N1a protease from tobacco etch virus (TEV protease). The C-terminus of the human β-arrestin2 protein was fused to TEV protease. Binding of an agonist recruits the βl -arrestin-TEV fusion protein to the receptor resulting in cleavage of the linker and released of tTA to enter the nucleus and subsequently activated a tTA-dependent luciferase reporter gene.
Assay 2a: Frozen HEK293 cells transiently transfected with receptor cDNAs for S1P1 (Invitrogen) are thawed and suspended in 10 mL of Pro293a-CDM culture medium (Invitrogen) supplemented with 4 mM L-Glutamine (Invitrogen), 1× Pen/Strep (100 units/mL penicillin and 100 μg/mL streptomycin, Invitrogen) and 0.1% fatty acid free BSA (Sigma-Aldrich). Cells are added to the wells of a 384-well white opaque bottom assay plate (PerkinElmer) at 3,000-6,000 cells per well and the plate is incubated for approximately 4 h in a 37° C. incubator. Test compounds are tested at maximum concentrations of 10 μM for the agonist assays. Compounds are diluted in DMSO (10 concentration points, 3-fold each) and added to the assay plate at a 1% final DMSO concentration. For each compound, there are duplicate assay plates and each assay plate has duplicate wells per concentration point. The plate is incubated at 37° C. for 30 min. The efficacy control is 5 μM S1P (Avanti). Following agonist addition, the assay plates are incubated in a 37° C. incubator for 16-18 h. Luciferase assay reagent is added and luminescence measured in an EnVision plate reader (PerkinElmer). To determine agonist activity, percent activity is calculated as [(test compound−background)/(positive control−background)*100], where background is the luminescence of the DMSO alone control and the positive control is the luminescence from cells incubated with the efficacy control 5 μM S1P. The percent activities are plotted against compound concentration to determine EC50 using XLFit (IDBS).
This assay was conducted using the procedures described in Assay 2a, replacing S1P1 with S1P3.

A further assay has as its target T4, S1P1 (Homo sapiens, UniProt P21453).
T4 construct: host or cells: U2OS
In words: Tango β-arrestin recruitment assay in U2OS cells (Assay 2b). Format: cell-based.
Description: as §1
Assay 2b: Alternatively, U2OS cells expressing the reporter gene and S1P1 (Invitrogen) were added to the wells of a 384-well white opaque bottom assay plate (PerkinElmer) at […]. The cells were serum starved for 48 h in Freestyle medium (Invitrogen). Test compounds were tested at maximum concentrations of 1 μM for the agonist assay. Compounds were diluted in DMSO (10 concentration points, 3-fold each) and added to the assay plate at a 1% final DMSO concentration. The efficacy control was 1 μM S1P (Avanti). For each compound, there were duplicate assay plates and each assay plate had duplicate wells per concentration point. The plate was incubated overnight at 37° C. The GeneBLAzer β-lactamase assay reagent (Invitrogen) was added and the plates were incubated for an additional 2 h at room temperature. Fluorescence was measured using an EnVision plate reader (PerkinElmer, Waltham, Mass.) at an excitation wavelength of 409 nm and emission wavelengths of 460 nm and 530 nm. The emission intensity at each wavelength was background subtracted against wells containing medium only and the F460 nm/F530 nm ratio determined for each concentration of the test compounds. Percent activity was calculated as [(test compound ratio−DMSO ratio)/(positive control ratio−DMSO ratio)*100], where the positive control and DMSO ratios are from cells incubated with the efficacy control 1 μM S1P and 1% DMSO, respectively. The percent activities were plotted against compound concentration to determine EC50 using XLFit (IDBS).

The mark [3] stands for this setting: * = rEC50 measured rather than EC50, read-out: Assay 2b rEC50 (relative EC50, cells marked *).

The source of these data is patent US20100249071A1, “Modulators of S1P and Methods of Making And Using” (Exelixis, Inc., priority 2009, published 2010).

Read-outs that look alike come from different tables or passages of the source.

T4 sequence (P32121 whole entry): as the sequence (P32121 whole entry) above
T4 sequence (P21453 whole entry): as the sequence (P21453 whole entry) above
T1 sequence (Q9H228 whole entry): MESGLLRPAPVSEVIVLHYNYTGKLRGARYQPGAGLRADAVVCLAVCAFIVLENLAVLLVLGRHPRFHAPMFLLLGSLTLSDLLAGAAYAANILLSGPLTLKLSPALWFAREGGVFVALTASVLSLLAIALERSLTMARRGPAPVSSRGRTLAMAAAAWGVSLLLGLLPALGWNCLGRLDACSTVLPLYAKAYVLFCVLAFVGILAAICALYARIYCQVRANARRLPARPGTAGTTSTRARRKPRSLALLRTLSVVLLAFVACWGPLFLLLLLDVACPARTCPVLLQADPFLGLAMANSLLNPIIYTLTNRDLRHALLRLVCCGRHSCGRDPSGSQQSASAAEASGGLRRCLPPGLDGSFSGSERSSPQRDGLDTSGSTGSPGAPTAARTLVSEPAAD

With `Cc1cc(-c2nnc(-c3cc(F)c(OC[C@@H](N)[C@@H](C)O)cc3Cl)s2)cnc1NC(C)C` [Entry 67, (2R,3R)-3-amino-4-{[5-chloro-2-fluoro-4-(5-{5-methyl-6-[(1-methylethyl)amino]pyridin-3-yl}-1,3,4-thiadiazol-2-yl)phenyl]oxy}butan-2-ol], the EC50 in assay [1] was 0.25 to 2.8 µM; in assay [2] it was 0.01 to 0.05 µM; on S1P3, > 10 µM; at S1P1 (read-out: Assay 2b EC50), ≤ 0.01 µM.
On the same counts, the results for `CC(C)Oc1ccc(-c2nnc(-c3cc(F)c(OC[C@@H](N)[C@@H](C)OP(=O)(O)O)cc3Cl)s2)cc1Cl` [Entry 70, (1R,2R)-2-amino-3-{[5-chloro-4-(5-{3-chloro-4-[(1-methylethyl)oxy]phenyl}-1,3,4-thiadiazol-2-yl)-2-fluorophenyl]oxy}-1-methylpropyl dihydrogen phosphate] are ≤ 0.01 µM, ≤ 0.01 µM, ≤ 0.25 µM and ≤ 0.01 µM.
As to `CC(C)Oc1ccc(-c2nnc(-c3cc(F)c(OC[C@@H](N)[C@H](C)O)cc3Cl)s2)cc1Cl` [Entry 71, (2S,3R)-3-amino-4-{[5-chloro-4-(5-{3-chloro-4-[(1-methylethyl)oxy]phenyl}-1,3,4-thiadiazol-2-yl)-2-fluorophenyl]oxy}butan-2-ol], the concentration giving a half-maximal response (EC50) is 0.01 to 0.05 µM in assay [1], ≤ 0.01 µM in assay [2], ≤ 0.25 µM at S1P3 and ≤ 0.01 µM on S1P1 (setting [3]).
Consider `Cc1cc(-c2nnc(-c3cc(F)c(OC[C@H](N)[C@@H](C)OP(=O)(O)O)cc3Cl)s2)cc(NC(C)C)n1` [Entry 94, (1R,2S)-2-amino-3-{[5-chloro-2-fluoro-4-(5-{2-methyl-6-[(1-methylethyl)amino]pyridin-4-yl}-1,3,4-thiadiazol-2-yl)phenyl]oxy}-1-methylpropyl dihydrogen phosphate], for which the EC50 is 0.01 to 0.05 µM in assay [1], ≤ 0.01 µM in assay [2], ≤ 0.25 µM at S1P3 and ≤ 0.01 µM on S1P1 (setting [3]).
Regarding `Cc1cc(-c2nnc(-c3cc(F)c(OC[C@@H](N)[C@H](C)O)cc3Cl)s2)cc(NC(C)C)n1` [Entry 98, (2S,3R)-3-amino-4-{[5-chloro-2-fluoro-4-(5-{2-methyl-6-[(1-methylethyl)amino]pyridin-4-yl}-1,3,4-thiadiazol-2-yl)phenyl]oxy}butan-2-ol], the half-maximal effective concentration (EC50) was 0.05 to 0.25 µM in assay [1], ≤ 0.01 µM in assay [2], ≤ 0.25 µM on S1P3 and ≤ 0.01 µM on S1P1 (read-out: Assay 2b EC50).
In the case of `CC(C)Nc1cc(-c2nnc(-c3cc(F)c(OC[C@H](N)[C@@H](C)O)cc3Cl)s2)ccn1` [Entry 57], the EC50 in assay [1] is 0.25 to 2.8 µM; in assay [2], 0.05 to 0.25 µM; at S1P3, > 10 µM; on S1P1 (read-out: Assay 2b EC50), 0.05 to 0.25 µM.
As for “(1R,2R)-2-amino-3-{[5-chloro-2-fluoro- 4-(5-{6-[(1-methylethyl)amino]pyridin- 3-yl}-1,3,4-thiadiazol-2-yl)phenyl]oxy}- 1-methylpropyl dihydrogen phosphate [Entry 102]”, the 50% effective concentration (EC50) in assay [1] was ≤ 0.01 µM; in assay [2] it was ≤ 0.01 µM; on S1P3, ≤ 0.25 µM; on S1P1 (setting [3]), ≤ 0.01 µM.
As for `Cc1nc(-c2nnc(-c3cc(F)c(OC[C@H](N)[C@H](C)O)cc3Cl)s2)ccc1NC(C)C` [Entry 105, (2S,3S)-3-amino-4-(5-chloro-2-fluoro-4-{5-[6-methyl-5-(propan-2-ylamino)pyridin-2-yl]-1,3,4-thiadiazol-2-yl}phenoxy)butan-2-ol], the values for the EC50 (in assay [1]; at S1P3; on S1P1 (read-out: Assay 2b EC50)) were 0.05 to 0.25 µM, > 0.25 µM and 0.05 to 0.25 µM, respectively.
As for `CC(C)N(C)c1cc(-c2nnc(-c3cc(F)c(OC[C@@H](N)CO)cc3Cl)s2)cc(Cl)n1` [Entry 31, (2S)-2-amino-3-{[5-chloro-4-(5-{2-chloro-6-[methyl(1-methylethyl)amino]pyridin-4-yl}-1,3,4-thiadiazol-2-yl)-2-fluorophenyl]oxy}propan-1-ol], the values for the EC50 (in assay [2]; at S1P3; at S1P1 (read-out: Assay 2b EC50)) were 0.05 to 0.25 µM, ≤ 0.25 µM and ≤ 0.01 µM, respectively.
As to `Cc1cc(NC(C)C)cc(-c2nnc(-c3cc(F)c(OC[C@H](N)[C@H](C)O)cc3Cl)s2)n1` [Entry 106, (2S,3S)-3-amino-4-(5-chloro-2-fluoro-4-{5-[6-methyl-4-(propan-2-ylamino)pyridin-2-yl]-1,3,4-thiadiazol-2-yl}phenoxy)butan-2-ol], the EC50 in assay [1] was 0.05 to 0.25 µM; at S1P3, > 0.25 µM; on S1P1 (read-out: Assay 2b EC50), 0.05 to 0.25 µM.
`Cc1cc(-c2nnc(-c3cc(F)c(OC[C@H](N)[C@H](C)OP(=O)(O)O)cc3Cl)s2)ccc1OC(C)C` [Entry 104, (1S,2S)-2-amino-3-{[5-chloro-2-fluoro-4-(5-{3-methyl-4-[(1-methylethyl)oxy]phenyl}-1,3,4-thiadiazol-2-yl)phenyl]oxy}-1-methylpropyl dihydrogen phosphate]: the EC50 in assay [1] is ≤ 0.01 µM; on S1P3, > 0.25 µM; on S1P1 (setting [3]), ≤ 0.01 µM.
For `CC(C)Oc1ccc(-c2nnc(-c3cc(F)c(OCC(N)CO)cc3Cl)s2)nc1Cl` (stereo not shown) [Entry 14, 2-amino-3-{[5-chloro-4-(5-{6-chloro-5-[(1-methylethyl)oxy]pyridin-2-yl}-1,3,4-thiadiazol-2-yl)-2-fluorophenyl]oxy}propan-1-ol], the figures for the EC50 (in assay [2]; at S1P3; on S1P1 (read-out: Assay 2b EC50)) were 0.01 to 0.05 µM, ≤ 0.25 µM and ≤ 0.01 µM, respectively.
In the same order, the values of `N[C@H](CO)COc1cc(Cl)c(-c2nnc(-c3cc(Cl)cc(Cl)c3)s2)cc1F` [Entry 92, (2R)-2-amino-3-({5-chloro-4-[5-(3,5-dichlorophenyl)-1,3,4-thiadiazol-2-yl]-2-fluorophenyl}oxy)propan-1-ol] are 0.25 to 2.8 µM, > 10 µM and 0.25 to 2.8 µM.
In the same order, the values of `N[C@H](CO)COc1cc(Cl)c(-c2nnc(-c3cc(Br)cc(OC(F)(F)F)c3)s2)cc1F` [Entry 28, (2R)-2-amino-3-{[4-(5-{3-bromo-5-[(trifluoromethyl)oxy]phenyl}-1,3,4-thiadiazol-2-yl)-5-chloro-2-fluorophenyl]oxy}propan-1-ol] are 0.05 to 0.25 µM, > 10 µM and 0.05 to 0.25 µM.
